Measurements: patent US6579705B2, “Process for preparing non-proteinogenic L-amino acids” (Consortium fur Elektrochemische Industrie GmbH, priority 2001, dated 2003)

B1: CysM: Escherichia coli O-acetyl-L-serine sulfhydrylase with C-terminal StrepTagII, purified by affinity chromatography (protein, UniProt P16703 1-303, looked up)
Cysteine synthase B: MSTLEQTIGNTPLVKLQRMGPDNGSEVWLKLEGNNPAGSVKDRAALSMIVEAEKRGEIKPGDVLIEATSGNTGIALAMIAALKGYRMKLLMPDNMSQERRAAMRAYGAELILVTKEQGMEGARDLALEMANRGEGKLLDQFNNPDNPYAHYTTTGPEIWQQTGGRITHFVSSMGTTGTITGVSRFMREQSKPVTIVGLQPEEGSSIPGIRRWPTEYLPGIFNASLVDEVLDIHQRDAENTMRELAVREGIFCGVSSGGAVAGALRVAKANPDAVVVAIICDRGDRYLSTGVFGEEHFSQGAGI
B2: CysK: Escherichia coli O-acetyl-L-serine sulfhydrylase with C-terminal StrepTagII, purified by affinity chromatography (protein, UniProt P0ABK5 2-323, looked up)
Cysteine synthase A: SKIFEDNSLTIGHTPLVRLNRIGNGRILAKVESRNPSFSVKCRIGANMIWDAEKRGVLKPGVELVEPTSGNTGIALAYVAAARGYKLTLTMPETMSIERRKLLKALGANLVLTEGAKGMKGAIQKAEEIVASNPEKYLLLQQFSNPANPEIHEKTTGPEIWEDTDGQVDVFIAGVGTGGTLTGVSRYIKGTKGKTDLISVAVEPTDSPVIAQALAGEEIKPGPHKIQGIGAGFIPANLDLKLVDKVIGITNEEAISTARRLMEEEGILAGISSGAAVAAALKLQEDESFTNKNIVVILPSSGERYLSTALFADLFTEKELQQ

Experiments:
[1] = target: T1, O-acetyl-L-serine sulfhydrylase CysK (Escherichia coli, UniProt P0ABK5); type: biochemical; details: pH 7
T1 construct: StrepTagII (WSHPQFEK) (C); made in house; host or cells: E. coli BLR21(DE3) carrying pLE4 (T7 promoter, pRSET5a)
Protocol: (§1) In order to use the O-acetyl-L-serine sulfhydrylases to prepare non-proteinogenic amino acids, other nucleophilic compounds were used in the reaction in place of sulfide or thiosulfate. In order to detect them, a precolumn derivatization for amino acids was carried out using ortho-phthaldialdehyde. Using this method, it was possible to carry out a broad screening for suitable nucleophilic substrates.
(§2) The mixtures contained 4 mM O-acetyl-L-serine (added from a 200 mM stock solution in 500 mM Nasuccinate buffer, pH 5.5), 20 mM nucleophilic compound, 100 mM K phosphate buffer, pH 7.0, and 5 μg of purified enzyme/ml. The reaction was stopped with 1/100th the volume of acetic acid (96% v/v) and analyzed by HPLC using a HP aminoquant column (200 mm×2.1 mm) in accordance with the manufacturer's instructions supplied by Hewlett Packard, Waldbronn, Germany.

[2] = target: T2, O-acetyl-L-serine sulfhydrylase CysM (Escherichia coli, UniProt P16703); type: biochemical; details: pH 7
T2 construct: StrepTagII (WSHPQFEK) (C); made in house; host or cells: E. coli DH5alpha carrying pFL145 (tet promoter, pASK-IBA3)
Protocol: as §1, §2

[3] = cited from earlier work
[4] = type: biochemical, Escherichia coli; details: 10 mM O-acetyl-serine, pH 7.0, 37° C., 5 μg purified enzyme/ml; for specific activity Acys (formation of cysteine using sulfide): 10 mM sodium sulfide
Protocol: The activity of O-acetyl-L-serine sulfhydrylases is measured by detecting the “natural” reaction product L-cysteine (Cys) or alternatively, in the case of CysM, also by detecting the reaction product as S-sulfo-L-cysteine (S-Cys). Both products can be detected very specifically and very sensitively using the test described by Gaitonde (1967, Biochem. J. 104: 627-633).
A typical test mixture contained 10 mM O-acetyl-serine (added from a 200 mM stock solution in 500 mM sodium succinate buffer, pH 5.5), 10 mM sodium sulfide or sodium thiosulfate, 100 mM potassium phosphate buffer, pH 7.0, and 5 μg of purified enzyme/ml, and is incubated at 37° C. The specific activity, A, is given in units/mg of protein, i.e. in μmol of product×min^−1×mg^−1 of protein. Acys denotes the specific activity of the formation of cysteine using sulfide. AS-Cys denotes the specific activity of the formation of S-sulfocysteine using thiosulfate. The specific activities using the proteins isolated in example 2 were: […]

T1 sequence (P0ABK5 whole entry, looked up): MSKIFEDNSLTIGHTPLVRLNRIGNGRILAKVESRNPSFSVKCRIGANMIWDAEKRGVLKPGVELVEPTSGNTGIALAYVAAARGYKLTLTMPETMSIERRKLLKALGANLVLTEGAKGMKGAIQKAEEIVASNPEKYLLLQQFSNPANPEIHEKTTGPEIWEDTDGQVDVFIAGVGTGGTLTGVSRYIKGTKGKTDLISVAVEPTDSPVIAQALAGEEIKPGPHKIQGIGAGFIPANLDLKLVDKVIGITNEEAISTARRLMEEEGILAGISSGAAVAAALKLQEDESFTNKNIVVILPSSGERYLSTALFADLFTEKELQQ

Molecule	CysK conversion [1]	CysM conversion [2]	other results
O[C@@H](CS)[C@@H](O)CS (racemic) [Dithiothreithol]	+++ (key: +++: conversion greater than 70% after 30 min; ++: conversion greater than 40% after 30 min; +: conversion greater than 10% after 30 min; −: conversion less than 5% after 30 min)	+++ (key: +++: conversion greater than 70% after 30 min; ++: conversion greater than 40% after 30 min; +: conversion greater than 10% after 30 min; −: conversion less than 5% after 30 min)	–
[SeH]c1ccccc1 [Phenylselenol]	++ (key: +++: conversion greater than 70% after 30 min; ++: conversion greater than 40% after 30 min; +: conversion greater than 10% after 30 min; −: conversion less than 5% after 30 min)	+++ (key: +++: conversion greater than 70% after 30 min; ++: conversion greater than 40% after 30 min; +: conversion greater than 10% after 30 min; −: conversion less than 5% after 30 min)	–
Sc1nc[nH]n1 [3 Mercapto-1,2,4-triazole]	+ (key: +++: conversion greater than 70% after 30 min; ++: conversion greater than 40% after 30 min; +: conversion greater than 10% after 30 min; −: conversion less than 5% after 30 min)	+++ (key: +++: conversion greater than 70% after 30 min; ++: conversion greater than 40% after 30 min; +: conversion greater than 10% after 30 min; −: conversion less than 5% after 30 min)	–
c1ccc2[nH]nnc2c1 [1,2,3-Benzotriazole]	++ (key: +++: conversion greater than 70% after 30 min; ++: conversion greater than 40% after 30 min; +: conversion greater than 10% after 30 min; −: conversion less than 5% after 30 min)	+ (key: +++: conversion greater than 70% after 30 min; ++: conversion greater than 40% after 30 min; +: conversion greater than 10% after 30 min; −: conversion less than 5% after 30 min)	–
[N-]=[N+]=[N-].[Na+] [Sodium azide]	+++ (key: +++: conversion greater than 70% after 30 min; ++: conversion greater than 40% after 30 min; +: conversion greater than 10% after 30 min; −: conversion less than 5% after 30 min)	+++ (key: +++: conversion greater than 70% after 30 min; ++: conversion greater than 40% after 30 min; +: conversion greater than 10% after 30 min; −: conversion less than 5% after 30 min)	–
1,2-Pyrazole	++ (key: +++: conversion greater than 70% after 30 min; ++: conversion greater than 40% after 30 min; +: conversion greater than 10% after 30 min; −: conversion less than 5% after 30 min)	++ (key: +++: conversion greater than 70% after 30 min; ++: conversion greater than 40% after 30 min; +: conversion greater than 10% after 30 min; −: conversion less than 5% after 30 min)	–
Sc1nccs1 [2-Mercaptothiazole]	++ (key: +++: conversion greater than 70% after 30 min; ++: conversion greater than 40% after 30 min; +: conversion greater than 10% after 30 min; −: conversion less than 5% after 30 min)	+++ (key: +++: conversion greater than 70% after 30 min; ++: conversion greater than 40% after 30 min; +: conversion greater than 10% after 30 min; −: conversion less than 5% after 30 min)	–
c1nn[nH]n1 [1,2,3,4-Tetrazole]	+++ (key: +++: conversion greater than 70% after 30 min; ++: conversion greater than 40% after 30 min; +: conversion greater than 10% after 30 min; −: conversion less than 5% after 30 min)	++ (key: +++: conversion greater than 70% after 30 min; ++: conversion greater than 40% after 30 min; +: conversion greater than 10% after 30 min; −: conversion less than 5% after 30 min)	–
O=C(O)c1ccc2[nH]nnc2c1 [5-Carboxy-1,2,3-benzotriazole]	++ (key: +++: conversion greater than 70% after 30 min; ++: conversion greater than 40% after 30 min; +: conversion greater than 10% after 30 min; −: conversion less than 5% after 30 min)	+ (key: +++: conversion greater than 70% after 30 min; ++: conversion greater than 40% after 30 min; +: conversion greater than 10% after 30 min; −: conversion less than 5% after 30 min)	–
CC(=O)OC[C@H](N)C(=O)O [O-Acetyl-L-serine]	–	–	stability toward isomerization ([3]; pH 4.0): stable; rate of isomerization to N-acetyl-L-serine ([3]; pH 7.6): 1 %×min^−1
Nc1nc2nn[nH]c2c(=O)[nH]1 [8-Azaguanine]	− (key: +++: conversion greater than 70% after 30 min; ++: conversion greater than 40% after 30 min; +: conversion greater than 10% after 30 min; −: conversion less than 5% after 30 min)	+ (key: +++: conversion greater than 70% after 30 min; ++: conversion greater than 40% after 30 min; +: conversion greater than 10% after 30 min; −: conversion less than 5% after 30 min)	–
Sc1ccccc1 [Thiophenol]	++ (key: +++: conversion greater than 70% after 30 min; ++: conversion greater than 40% after 30 min; +: conversion greater than 10% after 30 min; −: conversion less than 5% after 30 min)	+++ (key: +++: conversion greater than 70% after 30 min; ++: conversion greater than 40% after 30 min; +: conversion greater than 10% after 30 min; −: conversion less than 5% after 30 min)	–
OCCS [Mercaptoethanol]	+++ (key: +++: conversion greater than 70% after 30 min; ++: conversion greater than 40% after 30 min; +: conversion greater than 10% after 30 min; −: conversion less than 5% after 30 min)	+++ (key: +++: conversion greater than 70% after 30 min; ++: conversion greater than 40% after 30 min; +: conversion greater than 10% after 30 min; −: conversion less than 5% after 30 min)	–
c1nc[nH]n1 [1,2,4-Triazole]	+++ (key: +++: conversion greater than 70% after 30 min; ++: conversion greater than 40% after 30 min; +: conversion greater than 10% after 30 min; −: conversion less than 5% after 30 min)	++ (key: +++: conversion greater than 70% after 30 min; ++: conversion greater than 40% after 30 min; +: conversion greater than 10% after 30 min; −: conversion less than 5% after 30 min)	–
O=c1[nH]oc(=O)[nH]1 [1,2,4-Oxadiazolidine-3,5-dione]	− (key: +++: conversion greater than 70% after 30 min; ++: conversion greater than 40% after 30 min; +: conversion greater than 10% after 30 min; −: conversion less than 5% after 30 min)	+ (key: +++: conversion greater than 70% after 30 min; ++: conversion greater than 40% after 30 min; +: conversion greater than 10% after 30 min; −: conversion less than 5% after 30 min)	–
[SeH2] [Sodium selenide]	+++ (key: +++: conversion greater than 70% after 30 min; ++: conversion greater than 40% after 30 min; +: conversion greater than 10% after 30 min; −: conversion less than 5% after 30 min)	+++ (key: +++: conversion greater than 70% after 30 min; ++: conversion greater than 40% after 30 min; +: conversion greater than 10% after 30 min; −: conversion less than 5% after 30 min)	–
B1	–	–	specific activity Acys (formation of cysteine using sulfide) [4]: 199 units/mg; specific activity AS-cys (formation of S-sulfocysteine using thiosulfate) ([4]; 10 mM sodium thiosulfate): 145 units/mg
B2	–	–	specific activity Acys (formation of cysteine using sulfide) [4]: 140 units/mg
